Patent publication US20100056526A1, “HETEROMONOCYCLIC COMPOUND AND USE THEREOF” (Takeda Pharmaceutical Company Limited, priority 2006, published 2010)
Structures can show the parent of a compound that is named as a salt. Where two headings read alike, the source gives them in different places.

Assays:
human AT1 receptor = molecular target: T1, human AT1 receptor (Homo sapiens, UniProt P30556); assay: Binding assay using human AT1 receptor-expressing CHO-K1 cell membrane fraction ([125I]-angiotensin II); settings: 22.5 pM [125I]-angiotensin II, 9 μg AT1 membrane, 1 hr room temperature; read-out: AT1 receptor binding inhibitory action (IC50 (nM))
T1 construct: expressed in transfected cells; host or cells: CHO-K1
T1 sequence (P30556 1-359): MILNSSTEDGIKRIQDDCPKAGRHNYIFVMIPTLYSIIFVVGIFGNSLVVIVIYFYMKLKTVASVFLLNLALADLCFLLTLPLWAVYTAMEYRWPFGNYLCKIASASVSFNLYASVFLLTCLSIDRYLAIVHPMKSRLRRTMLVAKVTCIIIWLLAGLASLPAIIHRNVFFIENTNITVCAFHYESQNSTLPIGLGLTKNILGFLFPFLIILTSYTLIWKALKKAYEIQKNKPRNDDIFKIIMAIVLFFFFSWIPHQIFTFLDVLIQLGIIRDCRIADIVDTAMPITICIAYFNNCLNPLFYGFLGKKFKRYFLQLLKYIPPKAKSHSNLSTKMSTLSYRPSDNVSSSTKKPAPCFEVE
Procedure, shortened: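 CHO-K1 membranes stably expressing AT1 (9 μg) incubated with 22.5 pM [125I]-angiotensin II and compound in 50 mM Tris pH 7.4, 10 mM MgCl2, with or without 0.3 mg/mL fatty acid-free BSA, 1 hr at room temperature. Bound radioactivity counted after GF/C filtration; nonspecific binding with 1 μM CV-11974; IC50 calculated.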

PPARγ = molecular target: T2, PPARγ (Homo sapiens, UniProt P37231); assay: Evaluation of PPARγ activating action (luciferase reporter in PPARγ:RXRα:4ERPP/CHO-K1 cells); format: cell-based; settings: CHO-K1, 24 h, read-out: PPARγ activating action (activation % (10^−6 M))
T2 construct: expressed in transfected cells; host or cells: CHO-K1
T2 sequence (P37231 1-477 isoform P37231-2): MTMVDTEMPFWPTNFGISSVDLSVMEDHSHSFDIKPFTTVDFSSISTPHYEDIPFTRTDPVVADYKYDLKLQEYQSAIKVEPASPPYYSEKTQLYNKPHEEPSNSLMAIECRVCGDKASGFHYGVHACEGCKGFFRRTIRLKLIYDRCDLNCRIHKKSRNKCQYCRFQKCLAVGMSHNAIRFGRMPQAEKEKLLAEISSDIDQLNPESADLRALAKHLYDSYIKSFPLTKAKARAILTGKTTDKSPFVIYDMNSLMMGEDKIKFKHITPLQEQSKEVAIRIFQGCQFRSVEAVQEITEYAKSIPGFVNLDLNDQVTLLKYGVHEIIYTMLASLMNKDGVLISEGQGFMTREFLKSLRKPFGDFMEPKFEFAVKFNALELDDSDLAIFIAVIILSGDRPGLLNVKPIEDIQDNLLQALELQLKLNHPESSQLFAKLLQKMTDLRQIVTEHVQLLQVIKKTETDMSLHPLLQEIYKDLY
T2 sequence (P19793 1-462 partner): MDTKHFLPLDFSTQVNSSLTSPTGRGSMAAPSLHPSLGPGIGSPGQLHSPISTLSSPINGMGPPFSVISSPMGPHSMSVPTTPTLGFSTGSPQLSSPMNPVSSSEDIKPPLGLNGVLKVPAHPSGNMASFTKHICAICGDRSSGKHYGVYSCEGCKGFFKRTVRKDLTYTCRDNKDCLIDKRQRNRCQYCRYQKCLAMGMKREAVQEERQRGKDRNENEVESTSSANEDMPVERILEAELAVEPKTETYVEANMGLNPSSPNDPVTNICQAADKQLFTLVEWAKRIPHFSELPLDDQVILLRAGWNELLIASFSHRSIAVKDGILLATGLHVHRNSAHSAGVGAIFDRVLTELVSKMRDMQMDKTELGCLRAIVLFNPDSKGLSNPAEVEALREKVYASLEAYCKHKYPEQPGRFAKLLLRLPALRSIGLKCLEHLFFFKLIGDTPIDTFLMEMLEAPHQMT
Procedure, shortened: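 CHO-K1 cells stably carrying PPARγ, RXRα and a 4ERPP luciferase reporter were treated with compound for 1 day at 37 °C in F12 medium with 0.1% fatty acid-free BSA. Luciferase activity was read and scaled between no compound (0%) and reference agonist compound X at 1 μM (100%).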

[1] = test compound 10^−6 M, luciferase activity relative to control compound X (1 μM) = 100%, non-administration group = 0%

SMILES	IC50 (human AT1 receptor) [nM]	activation at 1 µM (PPARγ; [1]) [%]	activation at 1 µM (PPARγ) [%]
CCCCc1nc(C)n(C(C)c2ccccc2)c(=O)c1Cc1ccc(-c2ccccc2-c2noc(=O)[nH]2)cc1 (centres unmarked) [Example 67, 6-butyl-2-methyl-5-{[2′-(5-oxo-4,5-dihydro-1,2,4-oxadiazol-3-yl)biphenyl-4-yl]methyl}-3-(1-phenylethyl)pyrimidin-4(3H)-one]	2	49.4	
CCCCc1nc(C)c(C(=O)c2ccccc2)c(=O)n1Cc1ccc(-c2ccccc2-c2noc(=O)[nH]2)cc1 [Example 453, 5-benzoyl-2-butyl-6-methyl-3-{[2′-(5-oxo-4,5-dihydro-1,2,4-oxadiazol-3-yl)biphenyl-4-yl]methyl}pyrimidin-4(3H)-one]	2.9	22.5	
CCCCc1nc(OC)n(Cc2ccccc2)c(=O)c1Cc1ccc(-c2ccccc2-c2noc(=O)[nH]2)cc1 [Example 107, 3-benzyl-6-butyl-2-methoxy-5-{[2′-(5-oxo-4,5-dihydro-1,2,4-oxadiazol-3-yl)biphenyl-4-yl]methyl}pyrimidin-4(3H)-one]	2	60	
CCCCc1nc(C)n(-c2ccoc2)c(=O)c1Cc1ccc(-c2ccccc2-c2noc(=O)[nH]2)cc1 [Example 206, 6-butyl-3-(3-furyl)-2-methyl-5-{[2′-(5-oxo-4,5-dihydro-1,2,4-oxadiazol-3-yl)biphenyl-4-yl]methyl}pyrimidin-4(3H)-one]	2	21.8	
CCCc1nc(C)n(-c2ccc(OC(C)C)cc2)c(=O)c1Cc1ccc(-c2ccccc2-c2noc(=O)[nH]2)c(OC)c1 [Example 400, 3-(4-isopropoxyphenyl)-5-{[2-methoxy-2′-(5-oxo-4,5-dihydro-1,2,4-oxadiazol-3-yl)biphenyl-4-yl]methyl}-2-methyl-6-propylpyrimidin-4(3H)-one]	2.8	21.3	
CCCc1nc(CC)c(-c2ccc(OC(C)C)cc2F)c(=O)n1Cc1ccc(-c2ccccc2-c2noc(O)n2)cc1 [Example 458, 6-ethyl-5-(2-fluoro-4-isopropoxyphenyl)-3-{[2′-(5-oxo-4,5-dihydro-1,2,4-oxadiazol-3-yl)biphenyl-4-yl]methyl}-2-propylpyrimidin-4(3H)-one]	2.2	36	
CCCCc1nc(C)n(Cc2nc3ccccc3s2)c(=O)c1Cc1ccc(-c2ccccc2-c2noc(=O)[nH]2)cc1 [Example 64, 3-(1,3-benzothiazol-2-ylmethyl)-6-butyl-2-methyl-5-{[2′-(5-oxo-4,5-dihydro-1,2,4-oxadiazol-3-yl)biphenyl-4-yl]methyl}pyrimidin-4(3H)-one]	2	59.9	
CCCc1ncn(-c2ccc3c(c2)CC(C)(C)O3)c(=O)c1Cc1ccc(-c2ccccc2-c2noc(=O)[nH]2)cc1 [Example 178, 3-(2,2-dimethyl-2,3-dihydro-1-benzofuran-5-yl)-5-{[2′-(5-oxo-4,5-dihydro-1,2,4-oxadiazol-3-yl)biphenyl-4-yl]methyl}-6-propylpyrimidin-4(3H)-one]	2.6	37.5	
CCCc1nc(C)c(Oc2ccc(OC)cc2)c(=O)n1Cc1ccc(-c2ccccc2-c2noc(O)n2)cc1 [Example 476, 5-(4-methoxyphenoxy)-6-methyl-3-{[2′-(5-oxo-4,5-dihydro-1,2,4-oxadiazol-3-yl)biphenyl-4-yl]methyl}-2-propylpyrimidin-4(3H)-one potassium salt]	2.1		18.5

Stronger by IC50 (human AT1 receptor), values ahead:

IC50 (human AT1 receptor) [nM]	activation at 1 µM (PPARγ; [1]) [%]	SMILES	activation at 1 µM (PPARγ) [%]
1.9	35.8	CCOc1nc(C)c(Cc2ccccc2)c(=O)n1Cc1ccc(-c2ccccc2-c2noc(=O)[nH]2)cc1 [Example 4, 5-benzyl-2-ethoxy-6-methyl-3-{[2′-(5-oxo-4,5-dihydro-1,2,4-oxadiazol-3-yl)biphenyl-4-yl]methyl}pyrimidin-4(3H)-one]	
1.8	23.7	CCCc1nc(C)c(-c2ccc(OC(C)C)cc2)c(=O)n1Cc1ccc(-c2ccccc2-c2noc(O)n2)cc1F [Example 450, 3-{[3-fluoro-2′-(5-oxo-4,5-dihydro-1,2,4-oxadiazol-3-yl)biphenyl-4-yl]methyl}-5-(4-isopropoxyphenyl)-6-methyl-2-propylpyrimidin-4(3H)-one]	
1.6	62.9	CCCc1nc(C)n(CC2CCCCO2)c(=O)c1Cc1ccc(-c2ccccc2-c2noc(=O)[nH]2)cc1 (centres unmarked) [Example 81, 2-methyl-5-{[2′-(5-oxo-4,5-dihydro-1,2,4-oxadiazol-3-yl)biphenyl-4-yl]methyl}-6-propyl-3-(tetrahydro-2H-pyran-2-ylmethyl)pyrimidin-4(3H)-one]	
1.5	19.6	CCCCc1nc(COC)n(CC(C)(C)C)c(=O)c1Cc1ccc(-c2ccccc2-c2noc(=O)[nH]2)cc1 [Example 51, 6-butyl-3-(2,2-dimethylpropyl)-2-(methoxymethyl)-5-{[2′-(5-oxo-4,5-dihydro-1,2,4-oxadiazol-3-yl)biphenyl-4-yl]methyl}pyrimidin-4(3H)-one]	
1.4	61.2	CCCCc1nc(C)n(Cc2ccccc2)c(=O)c1Cc1ccc(-c2ccccc2-c2noc(=O)[nH]2)cc1 [Example 47, 3-benzyl-6-butyl-2-methyl-5-{[2′-(5-oxo-4,5-dihydro-1,2,4-oxadiazol-3-yl)biphenyl-4-yl]methyl}pyrimidin-4(3H) -one]	
1.3	55.4	CCCc1nc(CC)n(-c2ccc(OC(C)(C)C(C)O)cc2)c(=O)c1Cc1ccc(-c2ccccc2-c2noc(=O)[nH]2)cc1 (centres unmarked) [Example 444, 2-ethyl-3-[4-(2-hydroxy-1,1-dimethylpropoxy)phenyl]-5-{[2′-(5-oxo-4,5-dihydro-1,2,4-oxadiazol-3-yl)biphenyl-4-yl]methyl}-6-propylpyrimidin-4(3H)-one]	
1.3	29.3	CCCCc1nc(C)n(-c2ccc(OCC)cc2)c(=O)c1Cc1ccc(-c2ccccc2-c2noc(=O)[nH]2)cc1 [Example 222, 6-butyl-3-(4-ethoxyphenyl)-2-methyl-5-{[2′-(5-oxo-4,5-dihydro-1,2,4-oxadiazol-3-yl)biphenyl-4-yl]methyl}pyrimidin-4(3H)-one]	
1.2	37.5	CCCc1nc(CC)n(-c2ccc(OC3CCC(O)C3)cc2)c(=O)c1Cc1ccc(-c2ccccc2-c2noc(=O)[nH]2)cc1 (centres unmarked) [Example 425, 2-ethyl-3-{4-[(3-hydroxycyclopentyl)oxy]phenyl}-5-{[2′-(5-oxo-4,5-dihydro-1,2,4-oxadiazol-3-yl)biphenyl-4-yl]methyl}-6-propylpyrimidin-4(3H)-one]	
1.2	27.2	CCCc1nc(CC)n(-c2ccc(OC3CCCC3=O)cc2)c(=O)c1Cc1ccc(-c2ccccc2-c2noc(=O)[nH]2)cc1 (centres unmarked) [Example 382, 2-ethyl-3-{4-[(2-oxocyclopentyl)oxy]phenyl}-5-{[2′-(5-oxo-4,5-dihydro-1,2,4-oxadiazol-3-yl)biphenyl-4-yl]methyl}-6-propylpyrimidin-4(3H)-one]	
1	49.7	CCCc1nc(CC)n(-c2ccc(O[C@H]3CC[C@@H](O)CC3)cc2)c(=O)c1Cc1ccc(-c2ccccc2-c2noc(=O)[nH]2)cc1 [Example 415, 2-ethyl-3-{4-[(cis-4-hydroxycyclohexyl)oxy]phenyl}-5-{[2′-(5-oxo-4,5-dihydro-1,2,4-oxadiazol-3-yl)biphenyl-4-yl]methyl}-6-propylpyrimidin-4(3H)-one]	
